Measurements reported in patent US12102630B2 (Synthon B.V., priority 2018, dated 2024).

Assay: gel formation in contact with water / dissolution media
Format: physicochemical
Details: solid forms
Source text: The marketed product comprises lenvatinib mesylate. It is known that the lenvatinib mesylate salt gelifies when in contact with dissolution media, this may cause a delay in its release. EP1797881 discloses a pharmaceutical composition that solved the above problems using an alkaline excipient with a pH of 8 a 5% w/w aqueous solution to reduce the degradation of the active substance and silicic acid to inhibit gelation. Sodium carbonates are described as suitable alkaline excipient.
Gelification limits the dissolution of API and can influence bioavailability of the drug.

**Q.** Which “tendency to form a gel when in contact with water” value does the source give for lenvatinib besylate here?
**A.** don't tend to form a gel
